Laboratory results from patent US20260297042A1, “BIARYLAMIDE DERIVATIVES AND THEIR USE AS PKMYT1 INHIBITORS” (CANCER RESEARCH TECHNOLOGY LIMITED, priority 2023, published 2026).

Legend:
[1] = test system: h-TERT-RPE1 TP53−/− CCNE1 high expressing clone cell line 7 (CL7); assay: Nuclear count cell proliferation assay, CCNE1 high expressing clone cell line 7 (CL7) of h-TERT-RPE1 TP53−/−; assay type: cell-based; conditions: banded; for Selectivity Ratio Wt vs. CL7: GI50 ratio RPE Wt vs. CL7, >N = at least in this band; for GI50: hTERT-RPE1, h-TERT-RPE1 TP53−/− CCNE1 high clone CL7, nuclear count, around 6 population doublings, read-out: RPE CL7 GI50
Protocol: (§1) h-TERT-RPE1 TP53−/− and CCNE1 high expressing clones (clone cell lines 7 and 15) were treated with test compounds dissolved in DMSO at serially diluted concentrations alongside a DMSO only control for around 6 population doublings time. Cells were then fixed with 4% Paraformaldehyde and the cell nuclei were stained with DAPI (Sigma D9542). Images covering each well were acquired by an Opera Phenix® High-Content Screening System (PerkinElmer). Image analysis was performed using Harmony® high-content analysis software (PerkinElmer). Data analysis was performed using Microsoft Excel® and GI50 estimates generated with GraphPad Prism v9. Percent nuclear count was compared to vehicle control wells and used to measure inhibition of proliferation.

[2] = test system: h-TERT-RPE1 TP53−/− parental cells; assay: Nuclear count cell proliferation assay, parental (wild type) h-TERT-RPE1 TP53−/− cells; assay type: cell-based; conditions: hTERT-RPE1, h-TERT-RPE1 TP53−/− parental (Wt), around 6 population doublings, banded, read-out: RPE Wt GI50
Protocol: as §1

[3] = target: T1, Human PKMYT1 (Homo sapiens, UniProt Q99640); assay: PKMYT1 biochemical ADP-Glo enzymatic assay; conditions: ADP-Glo; 15 nM PKMYT1 kinase domain, 500 µM ATP, 60 minutes at 26° C.; banded
T1 construct: Human PKMYT1 75-362 was cloned as a TEV cleavable 6xHis fusion; 6xHis (TEV cleavable) (cleaved yes); made in house; host or cells: bacterial cells
T1 sequence (Q99640 75-362): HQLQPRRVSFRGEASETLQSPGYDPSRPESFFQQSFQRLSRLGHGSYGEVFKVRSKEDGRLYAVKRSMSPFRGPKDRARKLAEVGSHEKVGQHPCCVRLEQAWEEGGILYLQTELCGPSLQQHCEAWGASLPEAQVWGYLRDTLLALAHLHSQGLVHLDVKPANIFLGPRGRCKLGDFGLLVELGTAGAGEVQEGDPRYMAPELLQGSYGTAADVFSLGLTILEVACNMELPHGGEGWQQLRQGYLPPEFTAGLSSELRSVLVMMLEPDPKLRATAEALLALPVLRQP
How it was run: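 Compounds were titrated over 10 points (3-fold steps), then 15 nM purified PKMYT1 kinase domain (aa 75-362) and 500 µM ATP were added in pH 7.5 HEPES buffer. After 60 min at 26 °C, remaining ATP was depleted and ADP converted to luminescence for IC50 fitting.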

[4] = target: T2, WEE1 (Homo sapiens, UniProt P30291); assay: Selectivity versus WEE1 assay (ADP-Glo enzymatic assay); assay type: biochemical; conditions: banded; for IC50: ADP-Glo, 15 nM WEE1, 60 minutes at 26° C.; for PKMYT1 vs. WEE1 selectivity: fold difference in selectivity for PKMYT1 over WEE1, ">N" = at least in this band but could be higher
T2 construct: purchased Thermo Fisher PR7373A
How it was run: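 Compounds were pre-dispensed, enzyme (15 nM final) was added in pH 7.5 HEPES buffer, and ATP ([…]) then started a 60 min incubation at 26° C. Afterwards ADP-Glo reagents were added in turn and luminescence was measured to derive IC50 values.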

[5] = test system: KYSE-30 cells; assay: Cancer cell line proliferation assay, ATP-based cell viability (Cell Titre Glow), KYSE-30 (normal CCNE1); conditions: Homo sapiens, KYSE-30 cells (normal CCNE1), concentration that achieves 50% cell growth proliferation inhibition, read-out: KYSE30 Gl50
How it was run: (§2)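 Luminescence read-out from an ATP-based viability reagent served as the proliferation measure. Values are GI50 estimates, i.e. concentrations producing 50% inhibition of cell growth.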

[6] = test system: OVCAR3 cells; assay: Cancer cell line proliferation assay, nuclear count, OVCAR3 (CCNE1-amplified); assay type: cell-based; conditions: banded; for Selectivity ratio KYSE30 GI50 vs. OVCAR3 GI50: >N = at least in this band; for GI50: Homo sapiens, OVCAR-3, CCNE1-amplified ovarian cancer, nuclear count
Protocol: as §1
(§3) Cancer cell lines with either normal (KYSE-30) or amplified CCNE1 expression (OVCAR3-ovarian cancer) were evaluated for their sensitivity to PKMYT1 inhibitors in a nuclear count assay as described above for h-TERT-RPE1 TP53−/− and a CCNE1 high expressing clones, taking into account the slower cell cycle division times of these lines.

[7] = test system: OVCAR 3 cells; assay: Cancer cell line proliferation assay, ATP-based cell viability (Cell Titre Glow), OVCAR 3 (CCNE1-amplified); conditions: KYSE30 (normal CCNE1) GI50 vs. OVCAR 3 (CCNE1-amplified) GI50
How it was run: as §2

[8] = test system: KYSE-30 cells; assay: Cancer cell line proliferation assay, nuclear count, KYSE-30 (normal CCNE1); assay type: cell-based; conditions: Homo sapiens, normal CCNE1 expression, banded, read-out: KYSE30 GI50
Protocol: as §1, §3

[9] = test system: h-TERT-RPE1 TP53−/− CCNE1 high expressing clone cell line 15 (CL15); assay: Nuclear count cell proliferation assay, CCNE1 high expressing clone cell line 15 (CL15) of h-TERT-RPE1 TP53−/−; assay type: cell-based; conditions: banded; for Selectivity Ratio Wt vs. CL15: GI50 ratio RPE Wt vs. CL15, >N = at least in this band; for GI50: h-TERT-RPE1 TP53−/− CCNE1 high clone CL15, nuclear count, around 6 population doublings, read-out: RPE CL15 GI50
Protocol: as §1

T2 sequence (P30291 whole entry): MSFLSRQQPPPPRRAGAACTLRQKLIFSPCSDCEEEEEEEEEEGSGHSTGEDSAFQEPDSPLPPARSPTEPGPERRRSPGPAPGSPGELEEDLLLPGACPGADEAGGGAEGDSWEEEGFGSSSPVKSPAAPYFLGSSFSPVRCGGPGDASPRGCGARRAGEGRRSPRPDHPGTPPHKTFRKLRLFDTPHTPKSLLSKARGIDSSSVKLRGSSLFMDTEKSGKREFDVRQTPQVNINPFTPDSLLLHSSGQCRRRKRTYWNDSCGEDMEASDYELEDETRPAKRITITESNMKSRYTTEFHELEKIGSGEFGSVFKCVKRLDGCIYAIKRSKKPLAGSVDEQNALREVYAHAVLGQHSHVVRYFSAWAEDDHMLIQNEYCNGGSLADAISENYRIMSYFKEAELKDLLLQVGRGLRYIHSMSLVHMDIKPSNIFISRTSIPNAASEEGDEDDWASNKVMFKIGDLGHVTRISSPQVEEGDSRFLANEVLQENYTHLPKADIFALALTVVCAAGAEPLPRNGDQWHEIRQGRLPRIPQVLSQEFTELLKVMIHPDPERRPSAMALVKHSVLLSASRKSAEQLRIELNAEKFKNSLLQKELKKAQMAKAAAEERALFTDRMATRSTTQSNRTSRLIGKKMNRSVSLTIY

| Structure (SMILES) | Selectivity Ratio Wt vs. CL7 [1] | GI50 [1] | GI50 [2] | IC50 [3] | IC50 [4] | PKMYT1 vs. WEE1 selectivity [4] | GI50 [5] | Selectivity ratio KYSE30 GI50 vs. OVCAR3 GI50 [6] | GI50 [6] | Selectivity ratio KYSE30 Gl50 vs. OVCAR3 Gl50 [7] | GI50 [8] | Selectivity Ratio Wt vs. CL15 [9] | GI50 [9] |
| --- | --- | --- | --- | --- | --- | --- | --- | --- | --- | --- | --- | --- | --- |
| Cc1ccc(O)c(C)c1NC(=O)c1cnc(Nc2ccn(CC(=O)OC(C)C)n2)s1 [BAA-209, Isopropyl 2-[3-[[5-[(3-hydroxy-2,6-dimethyl-phenyl)carbamoyl]thiazol-2-yl]amino]pyrazol-1-yl]acetate] | >X (3-<10 fold) | < 500 nM | 500 to 3000 nM | < 50 nM | > 11000 nM | X (100-<1000 fold) | – | – | – | – | – | – | – |
| Cc1ccc(O)c(C)c1NC(=O)c1cnc(Nc2ccn([C@@H]3CCN(Cc4ccccc4)C3)n2)s1 [BAA-113, 2-[[1-[(3R)-1-Benzylpyrrolidin-3-yl]pyrazol-3-yl]amino]-N-(3-hydroxy-2,6-dimethyl-phenyl)thiazole-5-carboxamide] | Y (10-30 fold) | 500 to 3000 nM | 3000 to 10000 nM | 50 to 1000 nM | > 11000 nM | >X (100-<1000 fold) | – | – | – | – | – | – | – |
| Cc1ccc(O)c(C)c1NC(=O)c1cnc(Nc2ccn(CC(=O)N3CCNC(C)(C)C3)n2)s1 [BAA-229, 2-((1-(2-(3,3-dimethylpiperazin-1-yl)-2-oxoethyl)-1H-pyrazol-3-yl)amino)-N-(3-hydroxy-2,6-dimethylphenyl)thiazole-5-carboxamide] | X (3-<10 fold) | 3000 to 10000 nM | > 10000 nM | < 50 nM | > 11000 nM | Y (1000-5000 fold) | – | – | – | – | – | – | – |
| Cc1ccc(O)c(C)c1NC(=O)c1cnc(Nc2ccn(CC(=O)NC3CC3)n2)s1 [BAA-190] | X (3-<10 fold) | 500 to 3000 nM | 3000 to 10000 nM | < 50 nM | > 11000 nM | Y (1000-5000 fold) | – | – | – | – | – | – | – |
| Cc1cn(CC(=O)N2CCCC2)nc1Nc1ncc(C(=O)Nc2c(C)ccc(O)c2C)s1 [BAA-208, N-(3-hydroxy-2,6-dimethyl-phenyl)-2-[[4-methyl-1-(2-oxo-2-pyrrolidin-1-yl-ethyl)pyrazol-3-yl]amino]thiazole-5-carboxamide] | – | – | – | < 50 nM | 1000 to 11000 nM | X (100-<1000 fold) | > 5000 nM | Z (>30 fold) | < 500 nM | Y (>20 fold) | > 10000 nM | – | – |
| CCNC(=O)Cn1cc(C)c(Nc2ncc(C(=O)Nc3c(C)ccc(O)c3C)s2)n1 [BAA-206, 2-[[1-[2-(ethylamino)-2-oxo-ethyl]-4-methyl-pyrazol-3-yl]amino]-N-(3-hydroxy-2,6-dimethyl-phenyl)thiazole-5-carboxamide] | – | – | – | < 50 nM | 1000 to 11000 nM | Y (1000-5000 fold) | – | >Y (10-30 fold) | 500 to 3000 nM | – | > 10000 nM | – | – |
| Cc1ccc(O)c(C)c1NC(=O)c1cnc(Nc2ccn(CC(=O)NCCN(C)C)n2)s1 [BAA-160] | X (3-<10 fold) | 500 to 3000 nM | 3000 to 10000 nM | 50 to 1000 nM | > 11000 nM | X (100-<1000 fold) | – | – | – | – | – | – | – |
| Cc1ccc(O)c(C)c1NC(=O)c1cnc(Nc2ccn(CC(=O)NC3CCNCC3)n2)s1 [BAA-224, N-(3-hydroxy-2,6-dimethylphenyl)-2-((1-(2-oxo-2-(piperidin-4-ylamino)ethyl)-1H-pyrazol-3-yl)amino)thiazole-5-carboxamide] | Z (>30 fold) | < 500 nM | 3000 to 10000 nM | < 50 nM | > 11000 nM | X (100-<1000 fold) | – | – | – | – | – | – | – |
| Cc1ccc(O)c(C)c1NC(=O)c1cnc(Nc2cc(C(F)(F)F)nn2C)s1 [BAA-046, N-(3-hydroxy-2,6-dimethyl-phenyl)-2-[[2-methyl-5-(trifluoromethyl)pyrazol-3-yl]amino]thiazole-5-carboxamide] | – | – | – | 50 to 1000 nM | > 11000 nM | >X (100-<1000 fold) | – | X (3-<10 fold) | 500 to 3000 nM | – | 3000 to 10000 nM | – | – |
| Cc1ccc(O)c(C)c1NC(=O)c1cnc(Nc2ccn(CC(=O)NC3CCN(C(=O)OC(C)(C)C)CC3)n2)s1 [BAA-152] | – | – | > 10000 nM | < 50 nM | 1000 to 11000 nM | X (100-<1000 fold) | – | – | – | – | – | X (3-<10 fold) | 500 to 3000 nM |
| Cc1ccc(O)c(C)c1NC(=O)c1cnc(Nc2ccn(CC(=O)N3CC4CCC(C3)N4)n2)s1 [BAA-230, 2-((1-(2-(3,8-diazabicyclo[3.2.1]octan-3-yl)-2-oxoethyl)-1H-pyrazol-3-yl)amino)-N-(3-hydroxy-2,6-dimethylphenyl)thiazole-5-carboxamide] | X (3-<10 fold) | 3000 to 10000 nM | > 10000 nM | < 50 nM | > 11000 nM | X (100-<1000 fold) | – | – | – | – | – | – | – |
| CCOC(=O)c1cn(C)nc1Nc1ncc(C(=O)Nc2c(C)ccc(O)c2C)s1 [BAA-129, ethyl 3-[[5-[(3-hydroxy-2,6-dimethyl-phenyl)carbamoyl]thiazol-2-yl]amino]-1-methyl-pyrazole-4-carboxylate] | – | – | > 10000 nM | 50 to 1000 nM | > 11000 nM | >Y (1000-5000 fold) | – | – | – | – | – | X (3-<10 fold) | 500 to 3000 nM |
| Cc1ccc(O)c(C)c1NC(=O)c1cnc(NC2CC2)s1 [BAA-061, 2-(cyclopropylamino)-N-(3-hydroxy-2,6-dimethyl-phenyl)thiazole-5-carboxamide] | – | – | 3000 to 10000 nM | 50 to 1000 nM | > 11000 nM | X (100-<1000 fold) | – | – | – | – | – | X (3-<10 fold) | 500 to 3000 nM |
| Cc1ccc(O)c(C)c1NC(=O)c1cnc(Nc2ccn(CC(=O)N3CCN(CC4CC4)CC3)n2)s1 [BAA-183] | X (3-<10 fold) | < 500 nM | 3000 to 10000 nM | < 50 nM | > 11000 nM | Y (1000-5000 fold) | – | – | – | – | – | – | – |
| Cc1ccc(O)c(C)c1NC(=O)c1cnc(NCCCNC(=O)OC(C)(C)C)s1 [BAA-071, tert-butyl N-[3-[5-[(3-hydroxy-2,6-dimethyl-phenyl)carbamoyl]thiazol-2-yllamino]propyl]carbamate] | X (3-<10 fold) | 500 to 3000 nM | > 10000 nM | 50 to 1000 nM | > 11000 nM | >X (100-<1000 fold) | – | – | – | – | – | – | – |
| Cc1ccc(O)c(C)c1NC(=O)c1cnc(Nc2ccn(CC(=O)N3CCC(C)(C)CC3)n2)s1 [BAA-137] | X (3-<10 fold) | 500 to 3000 nM | 500 to 3000 nM | < 50 nM | > 11000 nM | Y (1000-5000 fold) | – | – | – | – | – | – | – |
